Tests used:
MKI67 (Ki67) = assay: Immunohistochemistry of endometriotic lesions, MKI67 (cell proliferation); format: in vivo, mice; details: 3 weeks; for % of MKI67 positive cells/total cells/0.007 mm^2, Stroma: control 13.8 ± 1.4
From the text: (§1) The presence and location of different proteins in the tissues obtained from the recipient mice. Samples of uterine tissue were isolated from the recipient mice, fixed by standard histological methods, and embedded in paraffin. Thin sections (5 μm) of the paraffin-embedded tissues were screened with standard immunohistochemical methods using antibodies to identify the expression of in the uterine tissues.
(§2) Primary antibodies that recognized MKI67 (Ki67), PECAM1 (CD31), ESR1, PGR, p-CHUK (IKK), p-STAT3, NOS2 (iNOS) and PTGS2 (COX2), and Vectastain Elite ABC Kit (# PK-6101), Mouse on Mouse Basic Kit (# BMK-2202, Vector laboratories) or DyLight-conjugated secondary antibody (#711-516-152, Jackson ImmunoResearch Lab) were used to show the presence of the proteins in the tissues, which were examined under microscopes.
(§3) The primary antibodies used in these analyses were: anti-MKI67 (Ki67, 1:200 dilution, 550609, BD Biosciences), anti-PECAM1 (CD31, 1:100 dilution, ab28364, Abcam), anti-ESR1 (1:100 dilution, sc-542, Santa Cruz Biotechnology), anti-PGR (1:200 dilution, RB-9017-P0, Thermo Scientific), anti-p-CHUK (IKK, 1:150 dilution, 2697, Cell Signaling Technology), anti-p-STAT3 (1:50 dilution, 9145, Cell Signaling Technology), anti-NOS2 (iNOS, 1:50 dilution, 610333, BD Biosciences) and anti-PTGS2 (COX2, 1:50 dilution, RM-9121, Thermo Scientific).
(§4) The expression of MKI67, ESR1, PGR, p-CHUK, p-STAT3, NOS2 and PTGS2 proteins in uterine tissues, as determined by immunohistochemical analysis of uterine tissue sections, was semiquantitatively analyzed. Levels of apoptosis were analyzed by TUNEL assay and also semiquantitatively analyzed. Histological sections were obtained from 4 different lesions. For each section, three different areas measuring 0.007 mm^2 were chosen. In each of those areas, the total number of epithelial or stromal cells was counted, as was the number of cells that tested positive for expressing MKI67 (a marker of cellular proliferation), steroid receptors ESR1 and PGR, and inflammatory signaling molecules p-CHUK, p-STAT3, NOS2 and PTGS2 proteins.

apoptosis = assay: TUNEL assay of endometriotic lesions; format: in vivo, mice; details: 3 weeks, control 8.7 ± 1.3
Description: The TUNEL assay is another immunohistological method used to show the amount of apoptosis, or programmed cell death, present in the uterine tissues. The TUNEL assay was performed on sections of uterine tissue according to manufacturer's instructions using ApopTag Fluorescein In Situ Apoptosis Detection Kit (# S7160, Millipore). The TUNEL assay, which identifies cells undergoing apoptosis, was semiquantitatively analyzed using areas of 0.02 mm^2 (3 different areas counted from each section, with sections obtained from 4 different lesions), and semiquantitatively analyzed.

ESR1 = assay: Immunohistochemistry of endometriotic lesions, ESR1; format: in vivo, mice; details: 3 weeks; for % of ESR1 positive cells/total cells/0.007 mm^2, Stroma: control 45.6 ± 6.9; for % of ESR1 positive cells/total cells/0.007 mm^2, Epithelium: control 79.1 ± 3.7
From the text: as §1, §2, §3, §4

p-CHUK (IKK) = assay: Immunohistochemistry of endometriotic lesions, p-CHUK; format: in vivo, mice; details: 3 weeks
From the text: as §4, with “The presence and location of different proteins in the tissues obtained from the recipient mice. Samples of uterine tissue were isolated from the recipient mice, fixed by standard histological methods, and embedded in paraffin. Thin sections (5 μm) of the paraffin-embedded tissues were screened with standard immunohistochemical methods using antibodies to identify the expression of in the uterine tissues. […] The expression” for “The expression”, “semiquantitatively analyzed. […] Histological sections” for “semiquantitatively analyzed. Histological sections”

PTGS2 (COX2) = assay: Immunohistochemistry of endometriotic lesions, PTGS2; format: in vivo, mice; details: 3 weeks; for % of PTGS2 positive cells/total cells/0.007 mm^2, Stroma: control 20.1 ± 2.2; for % of PTGS2 positive cells/total cells/0.007 mm^2, Epithelium: control 98.4 ± 0.5
From the text: as §1, §2, §3, §4
The expression of PTGS2 (COX2), an inflammatory molecule […] by NFκB and STAT3 signaling, was examined with a primary antibody against PTGS2.

female mice = assay: Effect of oral niclosamide on reproductive function (Study 2); format: in vivo
Description: The sham surgery was performed following the same steps as the endometriosis surgery except that no donor tissues were implanted onto the peritoneal walls of those mice; only sutures were applied to the peritoneal walls.
(§5) The recipient mice continued receiving oral daily niclosamide treatments until mouse pups were born, after which niclosamide treatment was discontinued. Three weeks after the pups were born, on postnatal day (PND) 21, the recipient mice were necropsied and the pups were weaned.
For each mated mouse, the following parameters were measured and recorded: the time of the formation of the vaginal plug after mating (days); the length of time that the mated mouse gestated or was pregnant (days); the number of pups born to each mated mouse; and the size and volume of the endometriotic lesions harvested from the mice after necropsy. Tissues were harvested from the mice, including endometriotic lesions and peritoneal walls to analyze the expression of proteins and genes of interest.
For each pup born to a mated mouse, its weight (g) at birth and on PND 21 was measured.

recipient mice = assay: General tolerability in recipient mice (Studies 1 and 2); format: in vivo
From the text: Uterine tissue pieces of B6-GFP mice (donor) were implanted into the peritoneal walls of recipient mice.
as §5

[1] = rats; cited from earlier work
[2] = after 3 weeks of treatment, 100 or 200 mg/kg b.w./day oral

Which “% of MKI67 positive cells/total cells/0.007 mm^2, Stroma” value (MKI67 (Ki67); 100 mg/kg b.w./day oral) does the source give for `O=C(Nc1ccc([N+](=O)[O-])cc1Cl)c1cc(Cl)ccc1O` [niclosamide, 5-chloro-N-(2-chloro-4-nitrophenyl)-2-hydroxybenzamide] here?
Its value is 10.9 ± 1.9%.

What about the “% of MKI67 positive cells/total cells/0.007 mm^2, Epithelium” value (MKI67 (Ki67); 100 mg/kg b.w./day oral, control 61.6 ± 5.9, 100 mg/kg/day) of the same molecule?
Its value is 50.1±7.9%.

What about the “% of MKI67 positive cells/total cells/0.007 mm^2, Epithelium” value (MKI67 (Ki67); 100 mg/kg b.w./day oral, control 61.6 ± 5.9, listed as Niclosamide, 100 mg/kg/day) of the same molecule?
Its value is 50.1 ± 7.9%.

And the “% of MKI67 positive cells/total cells/0.007 mm^2, Stroma” value (MKI67 (Ki67); 200 mg/kg b.w./day oral)?
Its value is 7.9 ± 1.9%.

What about the “% of MKI67 positive cells/total cells/0.007 mm^2, Epithelium” value (MKI67 (Ki67); 200 mg/kg b.w./day oral, control 61.6 ± 5.9, p < 0.05, 200 mg/kg/day) of the same molecule?
The value was 37.7±7.2%.

And the “% of MKI67 positive cells/total cells/0.007 mm^2, Epithelium” value (MKI67 (Ki67); 200 mg/kg b.w./day oral, control 61.6 ± 5.9, p < 0.05, listed as Niclosamide, 200 mg/kg/day)?
The value was 37.7 ± 7.2 %.

What about the “Cell number of TUNEL positive cells/0.02 mm^2” value (apoptosis; 100 mg/kg b.w./day oral) of the same molecule?
The value was 8.2 ± 1.3 cells/0.02 mm^2.

What about the “Cell number of TUNEL positive cells/0.02 mm^2” value (apoptosis; 200 mg/kg b.w./day oral) of the same molecule?
Its value is 7.8 ± 1.0 cells/0.02 mm^2.

And the “% of ESR1 positive cells/total cells/0.007 mm^2, Stroma” value (ESR1; 100 mg/kg b.w./day oral)?
The value was 55.9 ± 5.5%.

What about the “% of ESR1 positive cells/total cells/0.007 mm^2, Epithelium” value (ESR1; 100 mg/kg b.w./day oral) of the same molecule?
Its value is 96.6 ± 2.0%.

And the “% of ESR1 positive cells/total cells/0.007 mm^2, Stroma” value (ESR1; 200 mg/kg b.w./day oral)?
The value was 37.7 ± 5.7%.

What about the “% of ESR1 positive cells/total cells/0.007 mm^2, Epithelium” value (ESR1; 200 mg/kg b.w./day oral) of the same molecule?
Its value is 82.6 ± 5.6%.

And the “% of p-CHUK positive cells/total cells/0.007 mm^2, Stroma” value (p-CHUK (IKK); 100 mg/kg b.w./day oral, control 83.4 ± 4.7)?
The value was 86.3 ± 4.0%.

And the “% of p-CHUK positive cells/total cells/0.007 mm^2, Epithelium” value (p-CHUK (IKK); 100 mg/kg b.w./day oral, control 97.9 ± 2.1)?
The value was 92.3 ± 3.8%.

What about the “% of p-CHUK positive cells/total cells/0.007 mm^2, Stroma” value (p-CHUK (IKK); 200 mg/kg b.w./day oral, control 83.4 ± 4.7, p < 0.01) of the same molecule?
The value was 56.2 ± 8.3 %.

What about the “% of p-CHUK positive cells/total cells/0.007 mm^2, Epithelium” value (p-CHUK (IKK); 200 mg/kg b.w./day oral, control 97.9 ± 2.1, p < 0.05) of the same molecule?
The value was 76.7 ± 9.2 %.

And the “% of PTGS2 positive cells/total cells/0.007 mm^2, Stroma” value (PTGS2 (COX2); 100 mg/kg b.w./day oral)?
The value was 20.3 ± 3.3%.

What about the “% of PTGS2 positive cells/total cells/0.007 mm^2, Epithelium” value (PTGS2 (COX2); 100 mg/kg b.w./day oral) of the same molecule?
The value was 98.2 ± 0.5%.

And the “% of PTGS2 positive cells/total cells/0.007 mm^2, Stroma” value (PTGS2 (COX2); 200 mg/kg b.w./day oral)?
The value was 22.8 ± 2.0%.

What about the “% of PTGS2 positive cells/total cells/0.007 mm^2, Epithelium” value (PTGS2 (COX2); 200 mg/kg b.w./day oral) of the same molecule?
Its value is 98.7 ± 0.7%.

What about the “time to receive vaginal plug, between the groups” value (female mice; 0 or 200 mg/kg b.w./day oral, mated after 4 days of treatment) of the same molecule?
Its value is “No significant differences”.

What about the “pregnancy and birth in recipient mice exposed to niclosamide” value (female mice; 200 mg/kg b.w./day oral until pups were born) of the same molecule?
Its value is “became pregnant and gave birth”.

What about the “gestational length, number of pups, and weight of pups at birth and on PND21” value (female mice; 200 mg/kg b.w./day oral until pups were born vs 0) of the same molecule?
Its value is “did not cause any differences”.

What about the “adverse effects including weight loss in recipient mice” value (recipient mice; [2]) of the same molecule?
The value was “no obvious adverse effects”.

What about the “estrous cyclicity by vaginal cytology” value (recipient mice; [2]) of the same molecule?
The value was “observed in all mice”.

And the “adverse reactions, such as weight loss or changes in behavior in the recipient mice” value (recipient mice; daily 200 mg/kg b.w. for three (Study 1) to four weeks (Study 2))?
The value was “did not cause any adverse reactions”.

And the plasma half-life [1]?
Its plasma half-life is 7 h.
